Series [1] can be described thus: Rat pharmacokinetic study. It is filed as in vivo. The note with it: male Wistar rats, plasma. The procedure: Male Wistar rats (250±50 g) were used as experimental animals. Animals were housed individually in polypropylene cages. Two days prior to study, rats were anesthetized with isoflurane for surgical placement of jugular vein catheter. Rats were randomly divided for oral (3 mg/kg and 10 mL/kg as dose volume) and intravenous (1 mg/kg and 2 mL/kg as dose volume) dosing (n=3/group) and fasted overnight before oral dosing (p.o.). However, rats allocated to intravenous dosing food and water was provided ad libitum.
Intravenous formulation was prepared by using water for injection as vehicle. For Oral, formulation was prepared by using reagent grade water as vehicle. The dose formulations were prepared freshly on the day of dosing.
After dosing of animal, each time point a 200 μL of blood sample was collected through jugular vein and replenished with an equivalent volume of normal saline. The collected blood sample was transferred into a labeled eppendorf tube containing 10 μL of sodium heparin (1000 IU/mL) as an anticoagulant. Typically blood samples were collected at following time points: 0.08, 0.25, 0.5, 1, 2, 4, 6, 8, and 24 h post dose. Blood was centrifuged at 4000 rpm for 10 min. Plasma was separated and stored frozen at −80° C. until analysis. The concentrations of the test compounds were quantified in plasma by qualified LC-MS/MS method using a suitable extraction technique. The test compounds were quantified in the calibration range around 1-2000 ng/mL in plasma. Study samples were analyzed using calibration samples in the batch and quality control samples spread across the batch.
Pharmacokinetic parameters Cmax, AUCt, t1/2 and bioavailability were calculated by non-compartmental model using standard non-compartmental model by using Phoenix WinNonlin 6.4 version Software.

For series [2], the system named is intestinal (jejunum) EMG activity. Kind of series: Intestinal myoelectrical activity in male Wistar rats. It is filed as in vivo. The note with it: p.o. On the procedure: Method: The telemetry transmitter (F40-EET; DSI, MA, USA) was implanted subcutaneously in the rat and the spring electrodes were implanted into the walls of intestine (jejunum) under isoflurane anesthesia. After two weeks of surgical recovery, animals were fasted for 14 h and transferred to recording cages. The transmitter was switched on using magnetic switch and baseline intestinal EMG activity was recorded for 3 h. Rats were treated with vehicle, test compound of example 2 (10 or 30 mg/kg, p.o.) or positive control, prucalopride (10 mg/kg, p.o.) was administered and EMG signals were recorded for additional 3 h using Ponemah software (DSI, MA, USA). Animals were given access to only water during study. The recorded EMG signal was filtered using 20-50 Hz band filter and spiking activity was measured in bouts of 30 min using NeuroScore software (DSI, MA, USA).

Consider one compound from patent US20250019386A1, “PYRROLO[1,2-b]-2-PYRIDAZINONE COMPOUNDS AS 5-HT4 RECEPTOR AGONISTS” (SUVEN LIFE SCIENCES LIMITED, priority 2022, published 2025).

For orientation: AUC(0-t) means the area under the concentration-time curve up to a stated or last time point. Read a low AUC(0-t) as less exposure. One may read the half-life as how long it takes for the measured level to halve. A lower half-life goes with fast loss. In general, Cmax refers to the maximum level reached in the sampled fluid or tissue. By bioavailability is commonly meant the share of a dose that reaches the circulation, judged against a reference dose that is usually intravenous. Low readings indicate little systemic uptake, high ones much systemic uptake. `CC(C)n1c(=O)c(C(=O)NC2CC3CCC(C2)N3C[C@@H](O)CN(C)S(C)(=O)=O)cc2cccn21.O=C(O)C(O)C(O)C(=O)O` (single isomer, unassigned) [Example 2]: in series [1] (intravenous (bolus), 1 mg/kg), the AUC(0-t) turned out to be 65 ± 3 ng·h/mL and the half-life was 90 ± 30 min. Further, in series [1] (oral (gavage), 3 mg/kg), the exposure AUC(0-t) worked out at 160 ± 35 ng·h/mL and the Cmax was found to be 51 ± 19 ng/mL. For the same compound, in series [1] (oral 3 mg/kg vs intravenous 1 mg/kg), the bioavailability is 83 ± 18%. For the same compound, in series [2] (30 mg/kg, jejunum EMG spiking), the “increase in myoelectric activity” value was 97±31%. Moreover, the myoelectric activity result in series [2] (10 or 30 mg/kg) is reported as “dose-dependent increase in myoelectric activity”.
